A short description of assay [1]: Panel rating of odor attributes of soy sauce containing biogenic amines, with and without added compound. The settings on record: panelists n=6-8, scale 0-10, versus product alone. From the text:
The panelists (n=6-8) rate the attributes animalistic—fishy, metallic as well as woody, sweet, flowery and terpenic, herbal on an unstructured scale from 0 (no taste)—10 (strong taste). Thereby, the order is arbitrary and not known by the panelists beforehand.

Assay [2] in a line: Fish sauce triangle test with odor description. From the text: The panelists received the following instruction: Please smell the three samples and mark the sensorially deviating samples with a cross. In any case, one of the samples must be ticked, even if no difference can be noted.
The mark [3] stands for this setting: dosage of the compound 0.5 mg/kg.
Setting [4] is: dosage of the compound 0.1 mg/kg.

In the case of `C/C=C/C=C1/C(C)=CC(=O)CC1(C)C` [Tabanon, (4E)-4-[(E)-but-2-enylidene]-3,5,5-trimethyl-cyclohex-2-en-1-one], in assay [1] (dosage of the compound 1 mg/kg), the “Odor description (indication of relative change in percent) Animalistic-fishy, metallic” value is −18.8%; the “Odor description (indication of relative change in percent) Terpenig, herbal” value was −8.2%; the “Odor description (indication of relative change in percent) Woody, sweet, flowery” value is listed as 13.7%. Besides, the Odor description result in assay [2] (setting [3]) is reported as “bready, less”.

`CCC(O)CCC1C(C)CCCC1(C)C` (centres unmarked) [Madranol, 1-(2,2,6-trimethylcyclohexyl)pentan-3-ol]: in assay [1] (dosage of the compound 1 mg/kg), the “Odor description (indication of relative change in percent) Animalistic-fishy, metallic” value is reported as −13.9%; the “Odor description (indication of relative change in percent) Terpenig, herbal” value is −6.0%; the “Odor description (indication of relative change in percent) Woody, sweet, flowery” value amounted to 6.6%.

`CCCC(O)CCC1C(C)CCCC1(C)C` (centres unmarked) [Timberol, 1-(2,2,6-trimethylcyclohexyl)hexan-3-ol]: in assay [1] (dosage of the compound 1 mg/kg), the “Odor description (indication of relative change in percent) Animalistic-fishy, metallic” value is on record as −26.5%; the “Odor description (indication of relative change in percent) Terpenig, herbal” value is on record as −3.8%; the “Odor description (indication of relative change in percent) Woody, sweet, flowery” value is reported as 27.9%.

Regarding `CC1CCc2nccnc21` (centres unmarked) [5-Methyl-6,7-dihydrocyclopentapyrazine, 5-methyl-6,7-dihydro-5H-cyclopenta[b]pyrazine], in assay [1] (setting [3]), the “Odor description (indication of relative change in percent) Animalistic-fishy, metallic” value is given as −7.4%; the “Odor description (indication of relative change in percent) Terpenig, herbal” value is listed as −5.2%; the “Odor description (indication of relative change in percent) Woody, sweet, flowery” value is recorded as −10.0%. Moreover, the Odor description entry in assay [2] (dosage of the compound 0.05 mg/kg) is “not fishy, less silage notes,”.

For `CC(=O)/C=C/C1=C(C)CCCC1(C)C` [Beta ionone, (E)-4-(2,6,6-trimethylcyclohex-1-en-1-yl)but-3-en-2-one], in assay [1] (dosage of the compound 2 mg/kg), the “Odor description (indication of relative change in percent) Animalistic-fishy, metallic” value amounted to 2.4%; the “Odor description (indication of relative change in percent) Terpenig, herbal” value is reported as −28.9%; the “Odor description (indication of relative change in percent) Woody, sweet, flowery” value amounted to 51.9%. The Odor description result in assay [2] (setting [3]) is “less silage notes,”.

On to `CC1=CCCC(C)(C)C1/C=C/C(C)O` (stereo not drawn) [Alpha-Ionol, (E)-4-(2,6,6-trimethylcyclohex-2-en-1-yl)but-3-en-2-ol], for which the Odor description result in assay [2] (setting [3]) is listed as “bready, earthy, rounded”.

In the case of `C/C=C/C(=O)C1C(C)=CCCC1(C)C` (stereo not drawn) [Alpha-damascone, (E)-1-(2,6,6-trimethylcyclohex-2-en-1-yl)but-2-en-1-one], the Odor description result in assay [2] (dosage of the compound 0.2 mg/kg) was “cocoa note, sweet,”.

For `CC(=O)/C=C/C12OC1(C)CCCC2(C)C` (stereo not drawn) [Beta epoxyionone, (E)-4-(1,5,5-trimethyl-7-oxabicyclo[4.1.0]heptan-6-yl)but-3-en-2-one], in assay [1] (setting [3]), the “Odor description (indication of relative change in percent) Animalistic-fishy, metallic” value is on record as −5.4%; the “Odor description (indication of relative change in percent) Terpenig, herbal” value stood at 21.1%; the “Odor description (indication of relative change in percent) Woody, sweet, flowery” value is 22.8%.

For the compound `CCc1ncc(C)nc1CC` [2,3-Diethyl-5-methyl-pyrazine, 2,3-diethyl-5-methyl-pyrazine], the Odor description result in assay [2] (setting [4]) is on record as “metallic, dusty,”.

On to `CC1=CC=C2C(C)(C)CCCC2(C)O1` (centres unmarked) [Cycloionone, 2,5,5,8a-tetramethyl-7,8-dihydro-6H-chromene], for which, in assay [1] (setting [3]), the “Odor description (indication of relative change in percent) Animalistic-fishy, metallic” value was 2.3%; the “Odor description (indication of relative change in percent) Terpenig, herbal” value came to 19.6%; the “Odor description (indication of relative change in percent) Woody, sweet, flowery” value is 33.8%.

On to `CC(=O)/C=C/C1C(C)=CCCC1(C)C` (stereo not drawn) [Alpha ionone, (E)-4-(2,6,6-trimethylcyclohex-2-en-1-yl)but-3-en-2-one], for which, in assay [1] (dosage of the compound 1 mg/kg), the “Odor description (indication of relative change in percent) Animalistic-fishy, metallic” value is −20.5%; the “Odor description (indication of relative change in percent) Terpenig, herbal” value is on record as −7.6%; the “Odor description (indication of relative change in percent) Woody, sweet, flowery” value is recorded as −4.4%. Also, the Odor description entry in assay [2] (setting [4]) was “bready, earthy,”.

For the compound `CC(=O)CCC1=C(C)CCCC1(C)C` [Dihydroionone], in assay [1] (setting [3]), the “Odor description (indication of relative change in percent) Animalistic-fishy, metallic” value is given as 8.9%; the “Odor description (indication of relative change in percent) Terpenig, herbal” value is on record as −8.3%; the “Odor description (indication of relative change in percent) Woody, sweet, flowery” value stood at 9.5%.

With `CC1=CC(C)C(C=O)C(C)C1` (centres unmarked) [Isocyclocitral], the Odor description entry in assay [2] (dosage of the compound 1 mg/kg) is “bready, rounded,”.

Source of the values: patent US20210127719A1, “AROMATIC MIXTURE FOR REDUCING THE ODOR OR TASTE OF BIOGENIC AMINES” (SYMRISE AG, priority 2016, published 2021).
